The record followed here is the NIST ThermoML archive (doi:10.1021/je9006234).

± gives the expanded uncertainty stated by the source.

The conditions of this data set: 298.15 K; 101.33 kPa; Liquid.

`c1ccncc1` [pyridine]: the mass density came to 978.25 ± 0.27 kg/m3.
As for `Nc1ccccc1` [aniline], the mass density was determined as 1017.42 ± 0.19 kg/m3.
For the compound `c1cc[nH]c1` [pyrrole], the mass density is 965.9 ± 2.9 kg/m3.
`CN(C)C=O` [dimethylformamide]: the mass density turned out to be 944.21 ± 0.23 kg/m3.
`c1ccc2[nH]ccc2c1` [1H-indole]: the mass density is recorded as 1216.68 ± 1.3 kg/m3.
The value for `CCCCCCCCCCCCCCCC` [hexadecane] was 773.19 ± 0.32 kg/m3; that for `c1ccc2ncccc2c1` [quinoline] was 1089.45 ± 0.31 kg/m3.
